These are literature values, as cited in publication PMC6719874 (PLoS ONE, 2019).

“Also recorded” adds a separate entry of the source.

In one data set the test system is L-type calcium channels. Further details: method as in PMID 17125805, PMID 19887376.
In data set [1] the test system is tumors / human xenografts.
A further data set concerns the target T1, Y652A hERG (Homo sapiens, UniProt Q12809, Y652A).
T1 construct: host or cells: Xenopus laevis oocytes injected with cRNA
The conditions noted are these: Y652A ref 87.

The next data set has as its target F656A hERG (Homo sapiens, UniProt Q12809, F656A). The conditions noted are these: F656A ref 87.

F656A hERG, sequence (Q12809 whole entry F656A): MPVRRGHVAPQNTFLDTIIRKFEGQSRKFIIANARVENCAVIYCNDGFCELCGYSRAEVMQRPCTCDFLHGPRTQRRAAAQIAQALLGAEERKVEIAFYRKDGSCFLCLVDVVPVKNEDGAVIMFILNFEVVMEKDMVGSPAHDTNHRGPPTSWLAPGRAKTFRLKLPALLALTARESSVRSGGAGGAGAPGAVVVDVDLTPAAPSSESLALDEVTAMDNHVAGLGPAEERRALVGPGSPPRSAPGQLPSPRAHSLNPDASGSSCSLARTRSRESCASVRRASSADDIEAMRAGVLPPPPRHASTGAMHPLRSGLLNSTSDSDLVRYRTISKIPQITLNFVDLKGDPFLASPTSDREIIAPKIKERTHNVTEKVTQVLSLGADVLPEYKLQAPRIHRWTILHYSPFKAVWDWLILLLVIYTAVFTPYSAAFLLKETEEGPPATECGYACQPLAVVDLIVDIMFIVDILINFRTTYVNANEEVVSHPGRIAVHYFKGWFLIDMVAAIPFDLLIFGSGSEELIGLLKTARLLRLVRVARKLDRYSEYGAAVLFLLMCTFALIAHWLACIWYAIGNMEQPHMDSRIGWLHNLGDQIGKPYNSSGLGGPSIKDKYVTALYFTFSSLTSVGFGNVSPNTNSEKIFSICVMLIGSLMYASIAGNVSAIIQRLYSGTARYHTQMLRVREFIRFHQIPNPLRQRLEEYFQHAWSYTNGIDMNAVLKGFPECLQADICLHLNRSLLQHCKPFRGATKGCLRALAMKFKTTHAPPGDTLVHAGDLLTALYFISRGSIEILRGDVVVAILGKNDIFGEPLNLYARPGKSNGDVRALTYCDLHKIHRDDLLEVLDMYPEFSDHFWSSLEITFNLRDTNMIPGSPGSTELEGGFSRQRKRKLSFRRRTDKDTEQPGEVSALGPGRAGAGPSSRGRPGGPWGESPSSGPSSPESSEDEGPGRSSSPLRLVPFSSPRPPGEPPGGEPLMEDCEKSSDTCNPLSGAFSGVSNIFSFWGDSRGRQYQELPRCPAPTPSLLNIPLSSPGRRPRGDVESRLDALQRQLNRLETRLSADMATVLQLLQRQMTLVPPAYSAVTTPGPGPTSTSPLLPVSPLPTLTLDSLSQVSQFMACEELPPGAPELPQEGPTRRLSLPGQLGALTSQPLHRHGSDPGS
T1 sequence (Q12809 whole entry Y652A): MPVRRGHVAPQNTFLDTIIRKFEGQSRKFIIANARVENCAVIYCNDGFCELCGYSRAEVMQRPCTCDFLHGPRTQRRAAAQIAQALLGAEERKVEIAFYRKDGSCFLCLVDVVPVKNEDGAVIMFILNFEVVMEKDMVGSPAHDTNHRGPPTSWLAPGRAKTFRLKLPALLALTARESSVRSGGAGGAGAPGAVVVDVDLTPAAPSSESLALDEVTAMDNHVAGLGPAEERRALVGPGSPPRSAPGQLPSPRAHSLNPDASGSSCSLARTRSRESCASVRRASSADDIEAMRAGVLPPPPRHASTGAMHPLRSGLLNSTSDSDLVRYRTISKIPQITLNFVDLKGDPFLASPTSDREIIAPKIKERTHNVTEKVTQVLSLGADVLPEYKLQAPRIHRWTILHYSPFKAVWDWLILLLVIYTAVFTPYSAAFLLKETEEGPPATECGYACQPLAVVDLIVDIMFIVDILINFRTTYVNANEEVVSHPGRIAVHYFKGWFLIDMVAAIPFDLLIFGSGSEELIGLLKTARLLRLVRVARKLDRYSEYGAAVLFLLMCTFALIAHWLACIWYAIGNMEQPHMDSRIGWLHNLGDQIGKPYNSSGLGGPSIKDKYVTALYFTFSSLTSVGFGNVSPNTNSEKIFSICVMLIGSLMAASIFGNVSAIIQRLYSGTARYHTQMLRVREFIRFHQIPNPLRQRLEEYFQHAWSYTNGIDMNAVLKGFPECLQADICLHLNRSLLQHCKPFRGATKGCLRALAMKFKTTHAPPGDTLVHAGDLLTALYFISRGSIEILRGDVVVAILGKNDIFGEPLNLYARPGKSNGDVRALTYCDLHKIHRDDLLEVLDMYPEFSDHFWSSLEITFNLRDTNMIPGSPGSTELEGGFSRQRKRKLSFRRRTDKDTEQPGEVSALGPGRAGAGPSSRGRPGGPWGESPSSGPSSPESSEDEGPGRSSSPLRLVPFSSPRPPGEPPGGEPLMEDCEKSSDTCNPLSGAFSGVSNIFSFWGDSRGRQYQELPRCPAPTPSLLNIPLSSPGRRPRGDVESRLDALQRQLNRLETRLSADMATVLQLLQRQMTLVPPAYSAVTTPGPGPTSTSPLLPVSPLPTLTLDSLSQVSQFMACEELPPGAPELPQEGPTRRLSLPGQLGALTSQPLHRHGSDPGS

Consider `CCC(CO)Nc1nc(NCc2ccccc2)c2ncn(C(C)C)c2n1` (centres unmarked) [R-roscovitine, 2-(1-ethyl-2-hydroxyethylamino)-6-benzylamino-9-isopropylpurine], for which the “inhibition of S620T compared to WT” value in the data set with S620T hERG is listed as “similar; also recorded: not different from WT inhibition”. For the same compound, the potency of inhibition in the data set with L-type calcium channels is ~ 25 μM. Besides, the tumor suppression entry in data set [1] (mice ref 75-77) was “significant tumor suppression”. Moreover, the “growth delay of human xenografts” value in data set [1] (mice ref 78) is given as “significant growth delay”. For the setting “clinical trial, range of concentrations ref 18”, the “QT prolongation or other cardiac side effects” value is recorded as “did not find QT prolongation or other cardiac side effects”. Further, the tolerability entry (phase II clinical trials) was “well tolerated”.
As for `Cc1cccc(C)c1OCC(C)N` (centres unmarked) [mexiletine], the “fold change in IC50 in relation to WT” value is listed as ~ 12 fold on Y652A hERG and ~ 28 fold at F656A hERG.
